Literature values as cited in patent US20260216081A1, “METFORMIN HYDROCHLORIDE ENTERIC-COATED PREPARATION” (YAYAN (TIANJIN) BIOMEDICAL TECHNOLOGY CENTER (LIMITED …, priority 2023, published 2026).

Details: background statement

With CN(C)C(=N)N=C(N)N [metformin] as the compound, how does the “Incidence of gastrointestinal adverse reactions” value read?
The value was 20-30%.
